We go through five molecules from PMC7170901, “Design and efficient synthesis of pyrazoline and isoxazole bridged indole C-glycoside hybrids as potential anticancer agents” (Scientific Reports, 2020).

Data set [1] is described as follows: MTT cell viability assay in normal MCF-10A cells. The class given is cell-based. Particulars: human, MCF-10A normal mammary epithelial cells, read-out: Cell Viability (%) ± SD. From the text: MDA-MB-231 represents a specific subtype, known as the triple negative breast cancer (TNBC). […] We also included normal mammary epithelial MCF-10A cells in our experiments to confirm if the growth-inhibitory activities of the selected compounds are truly cancer cell-specific. […] Furthermore, none of these compounds did have any growth inhibitory activity against normal breast epithelial cell (MCF-10A). The IC50 values for these compounds against MDA-MB-231 cells (Fig. 2) are also included in Table 4 for comparison. Cell viability assay was performed as per standard protocols. After 72 h of cell incubation in the presence or absence of each compound, cell viability was evaluated by using MTT ((3-(4,5-dimethylthiazol-2-yl)-2,5-diphenyltetrazolium bromide)) (Himedia Pvt. Ltd, India). In brief, this is a homogeneous, colorimetric method for determining the number of viable cells in proliferation, cytotoxicity or chemosensitivity assays. MTT is bio reduced by cells into a formazan product that is […]. After 72 h of compound treatment, the medium was removed and 100 μL of MTT (0.5 mg ml^−1 in media) was added to the cells and kept in the dark for 3 h at 37 °C in the CO2 incubator and the formazan formed was dissolved in 100 μL DMSO (Dimethyl Sulfoxide). The absorbance of the formazan product at 595 nm was measured directly from 96-well assay plates without additional processing using a multimode plate reader (Bio-Rad) (iMark, India), as absorbance is directly proportional to the number of viable cells in culture. The percentage of viable cells in each group is determined with respect to the untreated control cells.
(In general: Tetrazolium assays rely on reduction of a dye to a coloured formazan, in cell work by metabolically active cells.)

In data set [2] the test system is MCF-7 cells. The experiment in a line: LDH cytotoxicity assay. Particulars: MCF-7, 25 µM; for cytotoxicity at 25 µM: Homo sapiens, MCF7, 48 h, read-out: % Cytotoxicity (LDH release relative to maximum LDH control); for % Cytotoxicity (LDH release relative to maximum LDH control): 48 h, 25 µM. Type of data set: cell-based. From the text:
When living cells treated with a cytotoxic compound, they could either stop growing and dividing, or die through either of two distinct processes i.e. necrosis or apoptosis. Basically, cells undergoing necrosis (accidental cell death) swell and lose membrane integrity before shutting down and releasing their intracellular contents into the surrounding environment. This type of cell death is usually triggered by external factors such as toxic chemical or traumatic physical events. When the cell membranes are damaged or compromised in any way, lactate dehydrogenase (LDH), a soluble yet stable enzyme found inside every living cell, gets released into the surrounding extracellular space. The presence of this enzyme in the culture medium can be used as a cell death marker. The relative amounts of live and dead cells within the medium can then be quantitated by measuring the amount of released LDH using a colorimetric or fluorometric LDH cytotoxicity assay.
Cytotoxicity was assessed with an LDH-cytotoxicity detection kit (Hi media, CCK036), Assays was performed according to assay protocol. Compound was taken at 25 μM concentration. The % of Cytotoxicity was calculated by this formula.
% Cytotoxicity = 100 × A − C/B − C, Where, A = Average absorbance of test. Average absorbance of background control (or vehicle control if applicable), B = Average absorbance of maximum LDH control − Average absorbance of volume correction control C = Average absorbance of untreated control − Average absorbance of background control.
Lactate Dehydrogenase Cell Assay Materials & Methods: (Himedia, product code; […]
Lactate dehydrogenase (LDH) is a cytoplasmic enzyme present in all mammalian cells. Plasma membrane of live cells is impermeable to LDH. However it is rapidly released into the culture medium when plasma membrane is damaged. The quantity of the leaked LDH is used as a measure of cell cytotoxicity. Due to low molecular weight (35kDa) LDH is easily released from the cells even with very minor damage or perturbations in the membrane. This makes the LDH release assay very sensitive.
This Kit has been designed for rapid determination of cell cytotoxicity using an enzyme coupled […]
Lactate Dehydrogenase (LDH) is based on an enzyme coupled reaction in which the LDH released from cells with damaged membrane reduces the tetrazolium dye to a colored formazan product. The reaction takes place in two steps - Step 1:
LDH catalyzes the conversion of lactate to pyruvate via reduction of NAD+ to NADH.
NADH thus generated reduces the tetrazolium dye to a colored formazan product which can be measured spectrophotometrically.
• Kit contents: CCK036(A) LDH reagent 5 x 5ml -20 °C in dark CCK036(B) Lysis solution 5ml -20 °C in dark
CCK036(C) Stop solution 25ml -20 °C in dark
• Cells in appropriate medium
• Adjustable pipettes and a repeat pipettor
• 96-well plate for culturing the cells
• 96-well plate reader capable of measuring the Absorbance at 450nm and more than […]
It is necessary to include different types of controls depending on application of LDH assay.
1. Maximum LDH control: It is recommended to perform maximum LDH estimation to determine total amount of LDH present in the cells.
2. Background control: Significant amount of LDH is present in the serum used for supplementing the culture medium. This contributes to the background absorbance / […]
without cells. Absorbance/fluorescence of background control wells should be subtracted from absorbance / fluorescence values of experimental wells to get corrected
3. Untreated control: Untreated control, also known as vehicle control should be included in the assay to obtain LDH values generated due to the solvent in which test compound is […]
(1 picture or pasted object on this page, not shown here) […]
dissolved. Untreated control wells contain the solvent at a concentration used for dissolving […]
• Preparation of cells: Freshly harvested MCF-7 cells for assay. Seeded in the 96well […]

Turning to `O=C(/C=C/c1c[nH]c2ccccc12)C[C@@H]1O[C@H](CO)[C@@H](O)[C@H](O)[C@H]1O` [Compound 9, (E)-4-(1H-indol-3-yl)-1-((2S,3R,4R,5S,6R)-3,4,5-trihydroxy-6-(hydroxymethyl)tetrahydro-2H-pyran-2-yl)but-3-en-2-one], in data set [1], the viability at 72 h, 25 µM came out at 87.6 ± 1.5%; the viability at 72 h, 50 µM came to 81.3 ± 2.9%; the viability at 72 h, 100 µM is 84.2 ± 3%. Besides, in data set [2], the cytotoxicity at 25 µM worked out at 12.9% and the “% Cytotoxicity (LDH release relative to maximum LDH control)” value is 13%.

In the case of `O=C(/C=C/c1c[nH]c2ccc(Cl)cc12)C[C@@H]1O[C@H](CO)[C@@H](O)[C@H](O)[C@@H]1O` [Compound 20, (E)-4-(5-chloro-1H-indol-3-yl)-1-((2S,3S,4R,5S,6R)-3,4,5-trihydroxy-6-(hydroxymethyl)tetrahydro-2H-pyran-2-yl)but-3-en-2-one], in data set [1], the viability at 72 h, 25 µM amounted to 85.8 ± 5.3%; the viability at 72 h, 50 µM stood at 78.8 ± 3%; the viability at 72 h, 100 µM is 36.5 ± 3.4%. Also, in data set [2], the cytotoxicity at 25 µM was 7.78% and the “% Cytotoxicity (LDH release relative to maximum LDH control)” value was 8%.

For `OC[C@H]1O[C@@H](CC2=NNC(c3c[nH]c4ccccc34)C2)[C@H](O)[C@@H](O)[C@H]1O` (stereo partly drawn) [Compound 25, (2 S,3 R,4 R,5 R,6 R)-2-((5-(1H-indol-3-yl)-4,5-dihydro-1H-pyrazol-3-yl)methyl)-6-(hydroxy-methyl)tetrahydro-2H-pyran-3,4,5-triol], in data set [1], the viability at 72 h, 25 µM was found to be 87.6 ± 2.2%; the viability at 72 h, 50 µM amounted to 84.6 ± 1.7%; the viability at 72 h, 100 µM is 82.4 ± 2.6%. Further, in data set [2], the cytotoxicity at 25 µM is 21.8% and the “% Cytotoxicity (LDH release relative to maximum LDH control)” value was 22%.

As for `O=[N+]([O-])c1ccc2[nH]cc(-c3cc(C[C@@H]4O[C@H](CO)[C@@H](O)[C@H](O)[C@H]4O)no3)c2c1` [Compound 34, (2 R,3 S,4 R,5 R,6 S)-2-(hydroxymethyl)-6-((5-(5-nitro-1H-indol-3-yl)isoxazol-3-yl)methyl) tetrahydro-2H-pyran-3,4,5-triol], in data set [1], the viability at 72 h, 25 µM was 87.6 ± 1.5%; the viability at 72 h, 50 µM came out at 80.1 ± 2.8%; the viability at 72 h, 100 µM was found to be 84.2 ± 3%. For the same molecule, in data set [2], the cytotoxicity at 25 µM was determined as 31.2% and the “% Cytotoxicity (LDH release relative to maximum LDH control)” value worked out at 31%.

In the case of `OC[C@H]1O[C@@H](Cc2cc(-c3c[nH]c4ccccc34)on2)[C@H](O)[C@@H](O)[C@H]1O` [Compound 37, (2 S,3 R,4 R,5 R,6 R)-2-((5-(1H-indol-3-yl)isoxazol-3-yl)methyl)-6-(hydroxymethyl) tetrahydro-2H-pyran-3,4,5-triol], in data set [1], the viability at 72 h, 25 µM turned out to be 86.8 ± 2.8%; the viability at 72 h, 50 µM is 83.2 ± 5.8%; the viability at 72 h, 100 µM was found to be 81 ± 1.5%. In data set [2], the cytotoxicity at 25 µM amounted to 36.4%.

The viability is the share of living cells, or the viability signal relative to a control.
